Values quoted from earlier work, collected in patent US20120087963A1, “DISINFECTANT COMPOSITION COMPRISING A BIGUANIDE COMPOUND” (BIO TECHNICS LIMITED, priority 2009, published 2012).

Tested on: bacteria
Settings: typical, of the order of

polyaminopropyl biguanide [PAPB]
Bactericidal concentration: ~10 mg/L
